In the supplement of paper PMC10307832:

How the values were obtained:
Assay in all cases: relative viability (nuclei count vs DMSO), 5 days (fraction); higher = more cells survive
Selumetinib + Lapatinib = compound: Cn1cnc2c(F)c(Nc3ccc(Br)cc3Cl)c(C(=O)NOCCO)cc21 [Selumetinib] + CS(=O)(=O)CCNCc1ccc(-c2ccc3ncnc(Nc4ccc(OCc5cccc(F)c5)c(Cl)c4)c3c2)o1 [Lapatinib] (partner 2 µM)
Summary of the method: (§1)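 Relative viability was taken as the ratio of nuclei in treated wells to nuclei in vehicle wells. Lung cancer cell lines in 1536-well plates received compounds by pin tool one day after seeding, either one drug alone or a fixed anchor-drug dose plus five library-drug doses (not always all listed) in √10 steps. Nuclei were counted on 4× images after 5 days of treatment, and values are medians of duplicate plates.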

Venetoclax + Pictilisib = compound: CC1(C)CCC(CN2CCN(c3ccc(C(=O)NS(=O)(=O)c4ccc(NCC5CCOCC5)c([N+](=O)[O-])c4)c(Oc4cnc5[nH]ccc5c4)c3)CC2)=C(c2ccc(Cl)cc2)C1 [Venetoclax] + CS(=O)(=O)N1CCN(Cc2cc3nc(-c4cccc5[nH]ncc45)nc(N4CCOCC4)c3s2)CC1 [Pictilisib] (partner 1 µM)
Summary of the method: as §1

Venetoclax + Lapatinib = compound: CC1(C)CCC(CN2CCN(c3ccc(C(=O)NS(=O)(=O)c4ccc(NCC5CCOCC5)c([N+](=O)[O-])c4)c(Oc4cnc5[nH]ccc5c4)c3)CC2)=C(c2ccc(Cl)cc2)C1 [Venetoclax] + CS(=O)(=O)CCNCc1ccc(-c2ccc3ncnc(Nc4ccc(OCc5cccc(F)c5)c(Cl)c4)c3c2)o1 [Lapatinib] (partner 2 µM)
Summary of the method: as §1

Selumetinib + Alpelisib = compound: Cn1cnc2c(F)c(Nc3ccc(Br)cc3Cl)c(C(=O)NOCCO)cc21 [Selumetinib] + Cc1nc(NC(=O)N2CCC[C@H]2C(N)=O)sc1-c1ccnc(C(C)(C)C(F)(F)F)c1 [Alpelisib] (partner 2 µM)
Summary of the method: as §1

Cell Line	relative viability (Selumetinib + Lapatinib; first compound 0.02 µM)	relative viability (Selumetinib + Lapatinib; first compound 0.06325 µM)	relative viability (Selumetinib + Lapatinib; first compound 0.2 µM)	relative viability (Selumetinib + Lapatinib; first compound 0.6325 µM)	relative viability (Venetoclax + Pictilisib; first compound 0.01 µM)	relative viability (Venetoclax + Pictilisib; first compound 0.03162 µM)	relative viability (Venetoclax + Pictilisib; first compound 0.1 µM)	relative viability (Venetoclax + Pictilisib; first compound 0.3162 µM)	relative viability (Venetoclax + Pictilisib; first compound 1 µM)	relative viability (Venetoclax + Lapatinib; first compound 0.01 µM)	relative viability (Venetoclax + Lapatinib; first compound 0.03162 µM)	relative viability (Venetoclax + Lapatinib; first compound 0.1 µM)	relative viability (Venetoclax + Lapatinib; first compound 0.3162 µM)	relative viability (Venetoclax + Lapatinib; first compound 1 µM)	relative viability (Selumetinib + Alpelisib; first compound 0.02 µM)	relative viability (Selumetinib + Alpelisib; first compound 0.06325 µM)	relative viability (Selumetinib + Alpelisib; first compound 0.2 µM)	relative viability (Selumetinib + Alpelisib; first compound 0.6325 µM)
NCI-H1792	0.881	0.79	0.683	0.629	0.228	0.306	0.161	0.262	0.278	0.933	0.946	0.869	0.916	0.803	0.684	0.603	0.485	0.386
NCI-H1355	0.959	0.785	0.693	0.558	0.493	0.547	0.377	0.467	0.404	1.02	1.02	0.968	0.93	0.993	0.77	0.791	0.591	0.444
HARA	0.657	0.506	0.606	0.486	0.55	0.386	0.396	0.451	0.324	0.876	0.68	0.647	0.822	0.758	0.701	0.647	0.549	0.353
201T	1.01	0.963	0.958	0.949	0.635	0.653	0.659	0.73	0.683	1.07	0.943	0.959	1.02	1.08	0.95	0.954	0.906	0.824
NCI-H23	1.24	1.02	0.825	0.957	0.595	0.501	0.381	0.479	0.508	1.11	1.14	0.942	1.12	0.984	0.628	0.589	0.438	0.358
